# Source: PMC11571215, “Optimization of Antiproliferative Properties of Triimine Copper(II) Complexes” (Journal of Medicinal Chemistry, 2024)
# Key:
# HCT116-DoxR cells [1] = test: Cellular senescence (beta-galactosidase, flow cytometry); assay type: cell-based, human; settings: 48 h at IC50, vs 0.1% DMSO
# Protocol: The percentage of senescent cells was assessed using the Senescence Assay Kit (Abcam), enabling the quantification of beta-galactosidase activity through flow cytometry. […] A 0.1% (v/v) DMSO solution served as vehicle control, and Dox and Cis were used as positive controls.
# In this assay, a senescence assay kit (Beta Galactosidase, Fluorescence) (ab228562; Abcam, UK) was used. HCT116-DoxR cells were seeded in 24-well plates at a density of 5 × 10^5 cells/well and incubated for 24 h, at the conditions mentioned before. […] Additionally, 0.1% (v/v) DMSO was used as a vehicle control, and 6 μM Dox and 5 μM Cis were used as positive controls. At the end of the incubation period, the medium was removed, and 500 μL of DMEM with 1.5 μL of Senescence dye was added to each well. The plates were incubated for an additional 1–2 h at 37 °C. Subsequently, the well contents were removed, and the cells were washed twice with Wash Buffer (provided by the kit). The cells were trypsinized with TrypLE Express and then centrifuged for 5 min at 500 × g. After centrifugation, the cells were washed with the wash buffer, centrifuged, and resuspended again in 500 μL of Wash Buffer. The samples were subsequently analyzed by an Attune acoustic focusing flow cytometer (Life Technologies, Carlsbad, USA), and the results were analyzed by the respective software (Attune Cytometric software).
# [2] = tested on: normal human primary dermal fibroblasts; test: MTS cell viability assay, normal fibroblasts; assay type: cell-based; settings: 48 h of exposure
# Protocol: The antiproliferative effect of the Cu(II) complexes in tumor and healthy cell lines was assessed through the MTS assay, a colorimetric method that is widely used to evaluate cellular viability, specifically mitochondrial viability.[53],[54] Cellular viability was determined after 48 h exposure to a concentration range (0.1–50 μM) of Cu(II) complexes in three tumor cell lines. […] Additionally, the viability of healthy primary dermal fibroblasts was performed as a comparison of the complexes’ antiproliferative effects in normal cells.
# Cellular viability assays were performed using HCT116, HCT116-DoxR, and A2780 cancer cell lines as well as normal human primary fibroblasts. Cells were seeded at a density of 0.75 × 10^5 cells/mL in 96-well plates and incubated at 37 °C with 5% (v/v) CO2 for 24 h. After this incubation period, the copper complexes were accurately weighed and immediately dissolved in 100% (v/v) dimethyl sulfoxide (DMSO). Subsequently, the complexes were diluted to the final concentration using a cell culture medium. The culture medium in each well was replaced with fresh medium containing varying concentrations of the complexes (ranging from 0.01 to 50 μM). Negative controls contained culture medium with 0.1% (v/v) DMSO, and positive controls contained 0.4 μM Dox.
# After an additional 48 h of incubation under the same conditions, cellular viability was assessed using the CellTiter 96 Aqueous One Solution Cell Proliferation Assay kit (Promega, Madison, USA). […] The absorbance of formazan, measured at 490 nm in a microplate reader (Tecan Infinite M200, Tecan, Männedorf, Switzerland), is directly proportional to the number of viable cells.[104]
# The cell viability versus concentration graphics were analyzed using Prism 8 software (GraphPad) to determine the half-maximal inhibitory concentration (IC50) of each complex for the respective cell line. Additionally, the selective index (SI) for each complex was calculated by dividing the IC50 of human fibroblasts by the IC50 values of the tested cancer cell lines.
# calf-thymus DNA (ctDNA) = test: UV-vis absorption titration with ctDNA; assay type: binding; settings: hyperchromic effect at ∼350 nm
# Protocol: For both Cu(II) complexes, the addition of DNA results in a gradual increase in the absorption intensity of the band at ∼350 nm, while the band position remains the same (Figure 14).
# These values fall in the range reported previously for related Cu(II) complex with 4′-((naphthalen-2-yl)methoxy)-2,2′:6′,2″-terpyridine[21] that was proposed as an “outside binder”.
# Absorption titration experiments were conducted by maintaining the complex concentration constant (25 μM) and varying the concentration of ctDNA (0–100 μM). Blank ctDNA samples were used as a reference.
# HCT116-DoxR cells [3] = test: Mitochondrial membrane potential (JC-1, flow cytometry); assay type: cell-based, human; settings: 48 h; complexes at IC50, Dox 6 μM, Cis 5 μM; normalized to DMSO
# Text: Changes in membrane potential can be measured and represent an essential parameter, indicating the functional state of the mitochondria. For this analysis, the lipophilic cationic probe 5,5′,6,6′-tetrachloro-1,1′,3,3′-tetraethylbenzimidazolylcarbocyanine iodide (JC-1) was used, allowing the evaluation of depolarization or hyperpolarization of the mitochondrial membrane.[72] In healthy cells, JC-1 accumulates inside the electronegative mitochondria as aggregates (red fluorescence) when the membrane potential is positively charged (hyperpolarized).[71] However, when depolarization of the mitochondrial membrane potential occurs, the JC-1 probe will accumulate outside of the mitochondria in its monomeric form (green fluorescence), therefore causing a decrease in the ratio of JC-1 aggregate/monomer fluorescence intensity.[61],[71] […] Subsequently, the cells were stained with the JC-1 probe and subjected to flow cytometry analysis to confirm potential alterations in the mitochondrial membrane potential induced by the complexes. […]
# The mitochondrial membrane potential (ΔΨM) was evaluated by using the JC-1 Mitochondrial Membrane Potential Assay Kit (Abnova Corporation, Walnut, California, USA). […] The samples were then analyzed in the Attune Acoustic Focusing Flow Cytometer (Life Technologies, Carlsbad, CA, USA) and results were processed with Attune Cytometric software.
# [4] = tested on: chicken embryo chorioallantoic membrane; test: Ex-ovo CAM assay: in vivo toxicity and angiogenic potential; settings: IC50 concentrations; for angiogenic potential (tertiary veins): 24 h, normalized to DMSO; for in vivo toxicity (embryo death): chicken embryo
# Text: The ex-ovo Chorioallantoic Membrane (CAM) assay has become a preclinical model of choice for assessing the cytotoxicity of Cu(II) complexes and in vivo angiogenesis.[38] The CAM is an extraembryonic membrane formed by mesodermal layers, highly vascularized despite being compromised, making it ideal for studying angiogenesis and antiangiogenesis in response to biomolecules and drugs.[97] […] In these assays, highly vascularized regions surrounded by O-rings on the chorioallantoic membrane of chicken embryos were studied. […] Eight embryos were used as biological replicates. Images were taken immediately after exposure to the complexes and control (0 h) and 24 h later. The values were normalized to the number of tertiary veins after exposure to the DMSO control and are represented in Figures 19 and S25.
# To assess the angiogenic potential of the copper complexes, an ex-ovo CAM (chick chorioallantoic membrane) in vivo model using chicken eggs was performed. Fertilized eggs were opened, and the embryos and blood vessels were stabilized for 24 h in an incubator at 37 °C in perforated individual weighing boxes. After incubation, 4 silicone O-rings were placed on areas with a high number of blood vessels. […] The area limited by each O-ring was photographed immediately after the addition of the complexes and after 24 and 48 h of incubation at 37 °C. The images were captured with a digital USB microscope camera (Opti-Tekscope OT-V1). Image analysis was performed using ImageJ software.
# pUC18 plasmid DNA (pDNA) = test: Plasmid DNA interaction and cleavage (gel electrophoresis); settings: 24 h; for pDNA cleavage / isoform change: 100 ng pUC18, 5–100 μM complex, 37 °C; for pDNA cleavage in presence of NaN3 scavenger: 50 μM complex + 50 μM NaN3, 37 °C; for pDNA cleavage in presence of H2O2: 50 μM complex + 100 μM H2O2, 37 °C
# Protocol: The procedure involved exposing 100 ng of pDNA (pUC18) to increasing concentrations of complexes Cu1a and Cu1b (5, 25, 50, 75, and 100 μM), which were incubated at 37 °C for 24 h.
# The sodium azide (NaN3) scavenger, capable of quenching singlet oxygen (^−1O2), was used for this purpose.[93] Additionally, hydrogen peroxide (H2O2) was employed as a well-known positive control for DNA cleavage through oxidative mechanisms in the presence of ROS.[71]
# Experiments were conducted with 100 ng of pUC18 DNA incubated with increasing concentrations of Cu1a and Cu1b complexes (5, 25, 50, 75, and 100 μM) or in their absence (pUC18 only or with 0.1% DMSO (v/v), both negative controls). For this assay, positive control was included, containing pUC18 DNA (100 ng) previously incubated with the HindIII enzyme to linearize the plasmid in the last 2 h of incubation. […] Electrophoresis was performed in 0.8% (w/v) agarose gel (NZYtech) in TAE 1× buffer at a constant voltage of 70 V for 80 min. The electrophoresis gel image was acquired using the Gel Doc EZ Imager (Bio-Rad), and band quantification was performed using ImageJ software.
# The pDNA (100 ng) was exposed to reactive oxygen species (ROS) scavenging agents, namely, sodium azide (NaN3) at 50 μM and hydrogen peroxide (H2O2) at 100 μM. […] Controls were also included where 100 ng of pUC18 was exposed to 0.1% (v/v) DMSO, and the activity of the HindIII restriction enzyme (linearized plasmid control) for 24 h. All the samples were adjusted to a final volume of 20 μL and incubated for 24 hs at 37 °C. […] The electrophoresis gel image was acquired in Gel Doc EZ Imager (Bio-Rad) and band quantification was performed using ImageJ software.
SMILES,senescent cells (HCT116-DoxR cells [1]),IC50 [2] [µM],mode of interaction with DNA (calf-thymus DNA (ctDNA)),JC-1 red/green fluorescence ratio (aggregate/monomer) (HCT116-DoxR cells [3]),angiogenic potential (tertiary veins) [4],in vivo toxicity (embryo death) [4],pDNA cleavage / isoform change (pUC18 plasmid DNA (pDNA)),pDNA cleavage in presence of NaN3 scavenger (pUC18 plasmid DNA (pDNA)),pDNA cleavage in presence of H2O2 (pUC18 plasmid DNA (pDNA))
[Cl][Cu-3]12([Cl])[n+]3ccccc3-c3cc(-c4cccc5ccccc45)cc([n+]31)-c1cccc[n+]12 [Cu1a],increase in the percentage of senescent cells,9.26 ± 0.9,"nonintercalative interactions with DNA, most likely via groove binding",approximately 0.79,did not show significant pro- or antiangiogenic properties,do not show in vivo toxicity in a chicken embryo,an increase in the circular form (N) was observed compared to negative control with the simultaneous decrease of the supercoiled isoform,an increase in the supercoiled isoform and a reduction in the nicked isoform,pDNA cleavage increased compared to H2O2 alone
[Cl][Cu-3]12([Cl])[n+]3ccccc3-c3cc(-c4ccc5ccccc5c4)cc([n+]31)-c1cccc[n+]12 [Cu1b],highest quantity of cells in senescence,13.3 ± 1,"nonintercalative interactions with DNA, most likely via groove binding",0.88,did not show significant pro- or antiangiogenic properties,do not show in vivo toxicity in a chicken embryo,a decrease in supercoiled forms and an increase in the intensity of the circular isoform at concentrations of 25 and 50 μM,an increase in the supercoiled isoform and a decrease in the nicked isoform,a complete disappearance of pDNA isoforms is observed
